Results published in ChEMBL document CHEMBL1148804, “Enzyme adaptation to inhibitor binding: a cryptic binding site in phenylethanolamine N-methyltransferase” (J Med Chem, 2007).

Species: Homo sapiens
Test: Ratio of Ki for wild type human PNMT to Ki for human PNMT K57 mutant

NS(=O)(=O)c1ccc2c(c1)CNCC2
Ratio Ki: 0.02
